In paper PMC6044507 (ACS Omega, 2018):

Key:
human GPR84 [1] = target: T1, human GPR84 (Homo sapiens, UniProt Q9NQS5); test: cell-based; type: cell-based; details: for percent receptor activation at 10 μM, cAMP assay: compound 10 μM; for percent receptor activation at 10 μM, cAMP assay / EC50: forskolin 10 μM; for EC50: CHO cells expressing human GPR84; for Emax: read-out: efficacy (Emax), cAMP assay
Target sequence in this assay (Q9NQS5 whole entry): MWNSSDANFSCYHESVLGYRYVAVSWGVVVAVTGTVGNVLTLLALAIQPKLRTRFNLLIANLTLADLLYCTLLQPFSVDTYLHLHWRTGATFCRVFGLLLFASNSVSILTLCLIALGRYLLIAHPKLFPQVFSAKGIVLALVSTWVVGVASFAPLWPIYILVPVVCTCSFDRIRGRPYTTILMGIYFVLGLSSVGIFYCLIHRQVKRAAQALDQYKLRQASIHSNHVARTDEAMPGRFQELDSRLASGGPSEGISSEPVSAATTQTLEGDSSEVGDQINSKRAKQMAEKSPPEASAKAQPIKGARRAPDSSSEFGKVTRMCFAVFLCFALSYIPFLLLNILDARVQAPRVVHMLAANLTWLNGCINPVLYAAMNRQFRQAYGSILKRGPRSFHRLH

human GPR84 [2] = target: T1, human GPR84; test: cell-based; details: EC50 ± SEM, β-arrestin assay, CHO cells expressing human GPR84
Target sequence in this assay (Q9NQS5 whole entry): as above
Target sequence in this assay (P32121 whole entry partner): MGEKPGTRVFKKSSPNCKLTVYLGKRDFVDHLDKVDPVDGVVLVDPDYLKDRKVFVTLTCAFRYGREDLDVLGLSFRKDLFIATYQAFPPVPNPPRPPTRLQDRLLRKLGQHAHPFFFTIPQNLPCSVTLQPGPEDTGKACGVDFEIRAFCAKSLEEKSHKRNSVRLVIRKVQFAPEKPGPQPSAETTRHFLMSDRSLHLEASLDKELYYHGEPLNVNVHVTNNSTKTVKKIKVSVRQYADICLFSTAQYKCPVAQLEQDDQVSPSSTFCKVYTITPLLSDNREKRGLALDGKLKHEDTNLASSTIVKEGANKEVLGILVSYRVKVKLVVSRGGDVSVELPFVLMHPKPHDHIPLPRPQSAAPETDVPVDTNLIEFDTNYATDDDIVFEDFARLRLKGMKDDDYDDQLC

[3] = metabolic stability in human liver microsomes; type: in vitro ADME; details: human microsomes, 30 min

Row | Structure (SMILES) | percent receptor activation at 10 μM, cAMP assay (human GPR84 [1]) [%] | EC50 (human GPR84 [1]; EC50 ± SEM, cAMP assay) [nM] | Emax (human GPR84 [1]) [%] | also measured
1 | O=Nc1c(NCCc2ccccc2)[nH]c(=O)[nH]c1=O [Compound 79] | 32 |  |  | 
2 | O=c1cc(NCCc2ccccc2Br)[nH]c(=O)[nH]1 [Compound 59] | 19 |  |  | 
3 | CCCCCCNc1[nH]c(=O)[nH]c(=O)c1Br [Compound 72] |  | 7400 ± 1600 | 123 | 
4 | O=C(O)CCCCCCCNc1cc(=O)[nH]c(=O)[nH]1 [Compound 30] | 13 |  |  | 
5 | CCCCC(CC)CNc1cc(=O)[nH]c(=O)[nH]1 (racemic) [Compound 24, N^6-(R,S)-(2-ethyl)hexyluracil] | 14 |  |  | agonistic activity at GPR84 in cAMP assay, in words (human GPR84 [1]): abolished activity
6 | CCCCCCCCNc1[nH]c(=O)[nH]c(=O)c1Br [Compound 73, 5-Bromo-6-octylamino-2,4(1H,3H)-pyrimidinedione] |  | 2000 ± 600 | 114 | 
7 | CCCCCCCCNc1cc(=O)n(C)c(=O)n1C [Compound 36] | 25 |  |  | agonistic activity at GPR84 in cAMP assay, in words (human GPR84 [1]): virtually abolished potency
8 | CCCCCNc1cc(=O)[nH]c(=O)[nH]1 [Compound 19, 6-Pentylamino-2,4(1H,3H)-pyrimidinedione] |  | 460 ± 130 | 106 | EC50 (human GPR84 [2]): 4800 ± 1300 nM
9 | CC(C)CCNc1cc(=O)[nH]c(=O)[nH]1 [Compound 17] | 14 |  |  | 
10 | CCCCCCNc1cc(=O)[nH]c(=O)n1C [Compound 34] | 32 |  |  | 
11 | CCCCCCSc1nc(O)cc(O)n1 [2-hexylthiopyrimidine-4,6-diol (5), 2-hexylthiopyrimidine-4,6-diol, reference compound] |  |  |  | drug disappeared after 30 min of incubation [3]: ~40%
12 | CCCCCCCNc1cc(=O)[nH]c(=O)[nH]1 [Compound 21, 6-Heptylamino-2,4(1H,3H)-pyrimidinedione] |  | 12 ± 6 | 113 | 
13 | O=c1cc(NCCCc2ccccc2)[nH]c(=O)[nH]1 [Compound 43, 6-(3-Phenylpropylamino)-2,4(1H,3H)-pyrimidinedione] |  | 1700 ± 600 | 120 | 
14 | Cc1cccc(CCNc2cc(=O)[nH]c(=O)[nH]2)c1 [Compound 52, 6-(m-Methylphenylethylamino)-2,4(1H,3H)-pyrimidinedione] |  | 79 ± 25 | 134 | EC50 (human GPR84 [2]): 780 ± 220 nM
15 | O=c1cc(N2CCC(Cc3ccccc3)CC2)[nH]c(=O)[nH]1 [Compound 67, 6-(4-Benzylpiperidin-1yl)-2,4(1H,3H)-pyrimidinedione] |  | 130 ± 10 | 114 | EC50 (human GPR84 [2]): 600 ± 160 nM
16 | CC(C)(C)CNc1cc(=O)[nH]c(=O)[nH]1 [Compound 16] | 4 |  |  | 
17 | O=c1cc(NCCc2cccc(Br)c2)[nH]c(=O)[nH]1 [Compound 55, 6-(m-Bromophenylethylamino)-2,4(1H,3H)-pyrimidinedione] |  | 64 ± 5 | 147 | EC50 (human GPR84 [2]): 190 ± 30 nM
18 | CCCCCCN(C)c1cc(=O)[nH]c(=O)[nH]1 [Compound 37, 6-(N-Methylhexylamino)-2,4(1H,3H)-pyrimidinedione] |  | 110 ± 40 | 106 | 
19 | O=c1cc(NCc2ccccc2)[nH]c(=O)[nH]1 [Compound 40] | 12 |  |  | agonistic activity at GPR84 in cAMP assay, in words (human GPR84 [1]): inactive
20 | O=c1[nH]c(NCCCc2ccccc2)c(Br)c(=O)[nH]1 [Compound 75] | 15 |  |  | 
21 | Cc1ccccc1CCNc1cc(=O)[nH]c(=O)[nH]1 [Compound 56, 6-(o-Methylphenylethylamino)-2,4(1H,3H)-pyrimidinedione] |  | 3200 ± 100 | 96 | 
22 | O=c1cc(NCCCOc2ccccc2)[nH]c(=O)[nH]1 [Compound 65, 6-(3-Phenoxypropylamino)-2,4(1H,3H)-pyrimidinedione] |  | 73 ± 5 | 107 | 
23 | COc1ccccc1N1CCN(CCCNc2cc(=O)n(C)c(=O)n2C)CC1 [urapidil, reference compound] | 7 |  |  | 
24 | O=c1cc(N2CCN(c3ccc(Cl)cc3)CC2)[nH]c(=O)[nH]1 [Compound 68, 6-[4-(p-Chlorophenyl)-1-piperazinyl]-2,4(1H,3H)-pyrimidinedione] |  |  | 117 | EC50 (human GPR84 [2]): 1800 ± 200 nM
25 | O=c1cc(NCCc2cccc(F)c2)[nH]c(=O)[nH]1 [Compound 53, 6-(m-Fluorophenylethylamino)-2,4(1H,3H)-pyrimidinedione] |  |  | 136 | 
26 | CCCCCCCCCNc1cc(=O)n(C)c(=O)[nH]1 [Compound 32, 6-Nonylamino-3-methyl-2,4(1H,3H)-pyrimidinedione] |  | 2000 ± 500 | 74 | 
27 | O=c1cc(NCCc2cccc(Cl)c2)[nH]c(=O)[nH]1 [Compound 54, 6-(m-Chlorophenylethylamino)-2,4(1H,3H)-pyrimidinedione] |  | 130 ± 10 | 125 | EC50 (human GPR84 [2]): 300 ± 100 nM
28 | CC(C)CNc1cc(=O)[nH]c(=O)[nH]1 [Compound 15] | 11 |  |  | 

Row | Structure (SMILES) | percent receptor activation at 10 μM, cAMP assay (human GPR84 [1]) [%] | EC50 (human GPR84 [1]; EC50 ± SEM, cAMP assay) [nM] | Emax (human GPR84 [1]) [%] | also measured
29 | CC(C)CCCCCNc1cc(=O)[nH]c(=O)[nH]1 [Compound 25] |  | 5900 ± 2600 | 99 | 
30 | O=c1cc(NCCc2cccs2)[nH]c(=O)[nH]1 [Compound 63, 6-(Thiophen-2-yl)ethylamino-2,4(1H,3H)-pyrimidinedione] |  |  | 112 | 
31 | CCCCCCNc1[nH]c(=O)[nH]c(=O)c1N=O [Compound 76] |  | 7700 ± 500 | 120 | 
32 | CCCCCCCCCCNc1cc(=O)[nH]c(=O)[nH]1 [Compound 23, 6-Decylamino-2,4(1H,3H)-pyrimidinedione] |  |  | 109 | 
33 | O=c1cc(NCc2cccc3ccccc23)[nH]c(=O)[nH]1 [Compound 41] | 23 |  |  | agonistic activity at GPR84 in cAMP assay, in words (human GPR84 [1]): inactive
34 | CC(C)(C)CCNc1cc(=O)[nH]c(=O)[nH]1 [Compound 18] | 18 |  |  | 
35 | O=c1cc(NCCc2ccc(Cl)cc2Cl)[nH]c(=O)[nH]1 [Compound 61, 6-(o,p-Dichlorophenethylamino)-2,4(1H,3H)-pyrimidinedione] |  | 44 ± 4 | 113 | EC50 (human GPR84 [2]): 82 ± 35 nM
36 | Cc1ccc(CCNc2cc(=O)[nH]c(=O)[nH]2)cc1 [Compound 45, 6-(p-Methylphenylethylamino)-2,4(1H,3H)-pyrimidinedione] |  | 13 ± 1 | 114 | EC50 (human GPR84 [2]): 320 ± 150 nM
37 | CCCCCCCNc1[nH]c(=O)[nH]c(=O)c1N=O [Compound 77, 6-Heptylamino-5-nitroso-2,4(1H,3H)-pyrimidinedione] |  | 500 ± 50 | 104 | 
38 | CCCCCCCCNc1c[nH]c(=O)[nH]c1=O [Compound 39] | 6 |  |  | agonistic activity at GPR84 in cAMP assay, in words (human GPR84 [1]): completely inactive
39 | Oc1cc(NCCCCc2ccccc2)nc(O)n1 [Compound 44, 6-(4-Phenylbutylamino)-2,4(1H,3H)-pyrimidinedione] |  | 24 ± 10 | 108 | 
40 | COc1ccccc1N1CCN(c2cc(=O)[nH]c(=O)[nH]2)CC1 [Compound 69] |  | 38 ± 7 | 53 | 
41 | O=c1[nH]c(NCCc2ccc(Br)cc2)c(Br)c(=O)[nH]1 [Compound 74, 5-Bromo-6-(p-bromophenylethylamino)-2,4(1H,3H)-pyrimidinedione] |  |  | 114 | EC50 (human GPR84 [2]): 6700 ± 1800 nM
42 | CCCCCCCCNc1cc(=O)[nH]c(=O)n1C [Compound 35] | 34 |  |  | 
43 | O=c1cc(NCCOc2ccccc2)[nH]c(=O)[nH]1 [Compound 64, 6-(2-Phenoxyethylamino)-2,4(1H,3H)-pyrimidinedione] |  | 100 ± 50 | 113 | EC50 (human GPR84 [2]): 730 ± 130 nM
44 | O=c1cc(NCCCCCCCO)[nH]c(=O)[nH]1 [Compound 28, 6-(7-Hydroxyheptylamino)-2,4(1H,3H)-pyrimidinedione] |  |  | 105 | EC50 (human GPR84 [2]): 2100 ± 600 nM; EC50 (human GPR84 [1]; EC50, cAMP assay): 1980 nM
45 | O=c1cc(NCCCCCCO)[nH]c(=O)[nH]1 [Compound 27] | 51 ± 8 |  |  | 
46 | O=c1cc(NCCc2ccc(F)cc2)[nH]c(=O)[nH]1 [Compound 46, 6-(p-Fluorophenylethylamino)-2,4(1H,3H)-pyrimidinedione] |  | 65 ± 14 | 111 | EC50 (human GPR84 [2]): 2000 ± 800 nM
47 | O=c1cc(N2CCN(Cc3cccc4ccccc34)CC2)[nH]c(=O)[nH]1 [Compound 71, 6-[4-(1-Naphthylmethyl)-1-piperazinyl]-2,4(1H,3H)-pyrimidinedione] |  | 150 ± 40 | 137 | 
48 | O=C(O)CCCCCNc1cc(=O)[nH]c(=O)[nH]1 [Compound 29] | 25 |  |  | 
49 | CCCCCCCCN(C)c1cc(=O)[nH]c(=O)[nH]1 [Compound 38, 6-(N-Methyloctylamino)-2,4(1H,3H)-pyrimidinedione] |  |  | 107 | EC50 (human GPR84 [2]): 640 ± 20 nM
50 | O=c1cc(N2CCC(c3ccccc3)CC2)[nH]c(=O)[nH]1 [Compound 66] | 13 |  |  | agonistic activity at GPR84 in cAMP assay, in words (human GPR84 [1]): inactive
51 | CCNc1cc(=O)[nH]c(=O)[nH]1 [Compound 13] | 15 |  |  | agonistic activity at GPR84 in cAMP assay, in words (human GPR84 [1]): inactive
52 | CSCCCNc1cc(=O)[nH]c(=O)[nH]1 [Compound 26, N^6-Methylthiopropyluracil] |  | 23000 ± 3000 | 100 | 
53 | O=c1cc(NCCc2ccccc2Cl)[nH]c(=O)[nH]1 [Compound 58, 6-(o-Chlorophenylethylamino)-2,4(1H,3H)-pyrimidinedione] |  | 100 ± 20 | 122 | EC50 (human GPR84 [2]): 1300 ± 100 nM
54 | CCCNc1cc(=O)[nH]c(=O)[nH]1 [Compound 14] | −9 |  |  | agonistic activity at GPR84 in cAMP assay, in words (human GPR84 [1]): inactive
55 | COc1ccc(CCNc2cc(=O)[nH]c(=O)[nH]2)cc1 [Compound 50, 6-(p-Methoxyphenylethylamino)-2,4(1H,3H)-pyrimidinedione] |  | 57 ± 21 | 111 | EC50 (human GPR84 [2]): 760 ± 370 nM
